# Measured values published in paper PMC9127750, “Structure-based design of CDC42 effector interaction inhibitors for the treatment of cancer” (Cell reports, 2022).
# Values joined by “and” are separate entries in the source; they are usually repeats but may differ in a detail not shown here. Identical values can stand only once.
# Tested on: WM3248 melanoma cells, 486 antibodies
# Experiment: Reverse phase protein arrays (RPPA);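 for CREB pS133.R.C RPPA level: ratio of treated to vehicle (0 µM) normalized linear protein signal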;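 for Cyclin.B1.R.V RPPA level: ratio of treated to vehicle (0 µM) normalized linear protein signal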;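 for Cyclin.E1.R.V RPPA level: ratio of treated to vehicle (0 µM) normalized linear protein signal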;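 for DDB.1.R.V RPPA level: ratio of treated to vehicle (0 µM) normalized linear protein signal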
# Format: cell-based, Human
# Conditions: 10 uM
# Source text: Pellets were snap frozen in liquid nitrogen and shipped to MD Anderson Cancer Center core RPPA facility for RPPA analysis (Table S5). Three biological replicates for each sample were generated.
# Nomenclatures on the RPPA heatmaps: name_of_antibody.species_of_antibody.status_of_antibody. V - antibody validated; C - validation of antibody in progress; Q - antibody nonspecific; E – under evaluation; antibodies raised in M - mouse, G - goat, R - rabbit, or T - rat.
smiles,measurement,setting,value
"CN(C)c1cccc(Nc2cc(-c3ccccc3)nc(C3CCNCC3)n2)c1 [ARN22089, N1,N1-dimethyl-N3-(6-phenyl-2-(piperidin-4-yl)pyrimidin-4-yl)benzene-1,3-diamine]",CENP.A.R.V RPPA level,replicates,1.151 and 1.005 and 0.894
same,CHD1L.R.V RPPA level,replicates,1.053 and 0.975
same,CIITA.R.C RPPA level,replicates,0.943
same,COG3.R.V RPPA level,replicates,1.004 and 1.123 and 1.059
same,CRABP1.R.C RPPA level,replicates,1.020 and 1.132 and 0.998
same,CRABP2.R.V RPPA level,replicates,1.116 and 1.191 and 0.898
same,CREB_pS133.R.C RPPA level,replicates,1.215 and 1.129 and 1.046
same,CSK.R.C RPPA level,replicates,1.016 and 1.050
same,Calnexin.R.V RPPA level,replicates,1.054 and 1.062 and 1.021
same,Caspase.3.cleaved.R.C RPPA level,replicates,0.914 and 0.955 and 0.964
same,Caspase.7.cleaved..R.C RPPA level,replicates,0.854 and 1.203 and 0.935
same,Caspase.8.M.Q RPPA level,replicates,0.939 and 0.985 and 0.948
same,Caspase.8.cleaved.R.C RPPA level,replicates,1.012 and 1.005
same,Caveolin.1.R.V RPPA level,replicates,0.511 and 0.968 and 1.344
same,Cdc6.R.V RPPA level,replicates,1.149 and 0.959 and 0.806
same,Cdc42.R.C RPPA level,replicates,0.879 and 1.031 and 1.047
same,Chk1.M.C RPPA level,replicates,0.982
same,Chk1_pS296.R.V RPPA level,replicates,1.083 and 1.109 and 1.035
same,Chk1_pS345.R.C RPPA level,replicates,1.079 and 0.892
same,Chk2.M.V RPPA level,replicates,1.081 and 1.018 and 0.980
same,Chk2_pT68.R.C RPPA level,replicates,1.106 and 0.986
same,Claudin.7.R.V RPPA level,replicates,1.024 and 1.518
same,Collagen.VI.R.V RPPA level,replicates,1.360 and 0.732 and 0.984
same,Complex.II.Subunit.M.V RPPA level,replicates,0.942 and 1.064
same,Connexin.43.R.C RPPA level,replicates,1.028 and 1.053 and 1.013
same,Coup.TFII.R.C RPPA level,replicates,0.805 and 0.957 and 0.905
same,Cox2.R.C RPPA level,replicates,0.926
same,Cox.IV.R.V RPPA level,replicates,0.954 and 1.028 and 0.879
same,Creb.R.C RPPA level,replicates,0.985 and 0.987 and 0.986
same,CtIP.R.V RPPA level,replicates,0.811 and 0.959 and 1.049
same,Cyclin.B1.R.V RPPA level,replicates,1.215 and 0.558 and 1.046
same,Cyclin.D1.R.C RPPA level,replicates,1.058 and 1.030
same,Cyclin.D3.M.V RPPA level,replicates,1.147 and 1.027 and 0.999
same,Cyclin.E1.R.V RPPA level,replicates,1.052 and 1.061 and 0.904
same,D.a.Tubulin.R.V RPPA level,replicates,0.843 and 1.062 and 1.022
same,DAPK1_pS308.M.C RPPA level,replicates,1.219 and 0.875
same,DAPK2.R.C RPPA level,replicates,0.896 and 0.971
same,DDB.1.R.V RPPA level,replicates,0.816 and 0.798 and 0.956
same,DDR1.R.V RPPA level,replicates,1.205 and 0.959 and 0.921
same,DDR1_pY513.R.C RPPA level,replicates,1.134 and 1.079 and 0.941
same,DJ1.R.V RPPA level,replicates,0.977 and 1.030
same,DM.Histone.H3.R.V RPPA level,replicates,0.923 and 0.956 and 0.905
same,DM.K9.Histone.H3.M.V RPPA level,replicates,1.060 and 1.027
same,DNA.Ligase.IV.R.C RPPA level,replicates,0.876 and 1.063
same,DNA_POLG.R.V RPPA level,replicates,1.161 and 1.030 and 0.850
same,c.Jun_pS73.R.V RPPA level,replicates,0.892 and 1.231 and 0.915
same,c.Kit.R.V RPPA level,replicates,1.223 and 0.923 and 0.946
same,c.Met_pY1234_Y1235.R.V RPPA level,replicates,0.927 and 0.979
same,c.Myc.R.C RPPA level,replicates,0.990 and 1.949 and 1.062
same,cGAS.R.V RPPA level,replicates,1.123 and 1.204 and 1.015
same,cdc2_pY15.R.C RPPA level,replicates,1.056 and 0.933
same,cdc25C.R.V RPPA level,replicates,0.773 and 0.805 and 1.120
same,RPPA MYH11.R.C,single replicates,1.100 and 1.584
same,RPPA Myosin.IIa.R.C,single replicates,0.877 and 0.781 and 1.164
same,RPPA Myosin.IIa_pS1943.R.V,single replicates,0.954 and 0.844 and 1.268
same,RPPA Myt1.R.C,single replicates,0.886 and 0.984 and 1.096
same,RPPA N.Cadherin.R.V,single replicates,1.097 and 1.063 and 1.030
same,RPPA N.Ras.M.V,single replicates,0.953 and 0.958 and 1.062
same,RPPA NAPSIN.A.R.C,single replicates,0.999 and 1.048
same,RPPA NDRG1_pT346.R.V,single replicates,0.798 and 1.051 and 1.195
same,RPPA NDUFB4.R.V,single replicates,1.112 and 1.008 and 0.987
same,RPPA NRF2.R.C,single replicates,1.131 and 0.925 and 0.932
same,RPPA Notch1.R.V,single replicates,1.065 and 1.124 and 1.005
same,RPPA Notch1.cleaved.R.V,single replicates,0.792 and 0.886 and 1.098
same,RPPA Notch3.R.C,single replicates,1.065 and 1.230 and 1.000
same,RPPA Oct.4.R.C,single replicates,0.909
same,RPPA P.Cadherin.R.C,single replicates,1.001 and 0.968
same,RPPA PAI.1.M.V,single replicates,0.919 and 0.946
same,RPPA PAICS.R.C,single replicates,0.926 and 0.836 and 0.997
same,RPPA PAK1.R.V,single replicates,0.749 and 1.057 and 1.078
same,RPPA PAK4.R.V,single replicates,1.101 and 1.108 and 0.979
same,RPPA PAK_pS474_S602_S560.R.V,single replicates,1.125 and 1.130 and 1.000
same,RPPA PAK_pT423_T402.R.C,single replicates,1.141 and 0.908
same,RPPA PAR.R.C,single replicates,0.306 and 0.831 and 0.304
same,RPPA PARG.R.C,single replicates,0.976 and 1.013 and 0.921
same,RPPA PARP.R.V,single replicates,1.079 and 0.890 and 1.083
same,RPPA PAX6.R.V,single replicates,0.992 and 1.020 and 0.997
same,RPPA PAX8.R.C,single replicates,1.133 and 1.022 and 0.978
same,RPPA PCNA.M.C,single replicates,0.928 and 1.013 and 1.020
same,RPPA PD.1.R.V,single replicates,1.076 and 1.064 and 1.035
same,RPPA PD.L1.R.C,single replicates,0.845 and 1.047
same,RPPA PDH.M.V,single replicates,1.032 and 1.047 and 1.014
